pIC50, pKi: −log10 of the molar value. In brackets after ≈: the same amount, converted by molar mass. Activity calls are given as the source filed them. The calls are words filed in the database; no cut-off is given here.
Legend:
[1] = Aqueous solubility in fasted-state simulated intestinal fluid at pH 6.8 after 3 days by HPLC; type: physicochemical
[2] = Aqueous solubility in simulated gastric fluid at pH 1.2 after 3 days by HPLC; type: physicochemical
Rattus norvegicus [3] = experiment: Clearance in fasted Sprague-Dawley rat at 1 mg/kg, iv and 5 mg/kg, po; type: ADME, organism-based; settings: in vivo
[4] = Volume of distribution at steady state in fasted Sprague-Dawley rat at 1 mg/kg, iv and 5 mg/kg, po; type: ADME, organism-based; settings: in vivo, read-out: Vdss
[5] = Half life in fasted Sprague-Dawley rat at 1 mg/kg, iv and 5 mg/kg, po; type: ADME, organism-based; settings: in vivo
[6] = Cmax in fasted Sprague-Dawley rat at 5 mg/kg, po; type: ADME, organism-based; parameters: dose 5 mg/kg, route oral; settings: in vivo
[7] = Tmax in fasted Sprague-Dawley rat at 5 mg/kg, po; type: ADME, organism-based; parameters: dose 5 mg/kg, route oral; settings: in vivo
Rattus norvegicus [8] = experiment: AUC (0 to infinity) in fasted Sprague-Dawley rat at 5 mg/kg, po; type: ADME, organism-based, Plasma; parameters: time infinity, dose 5 mg/kg, route oral; settings: in vivo
Rattus norvegicus [9] = experiment: Bioavailability in fasted Sprague-Dawley rat at 1 mg/kg, iv and 5 mg/kg, po; type: ADME, organism-based; settings: in vivo
[10] = biological target: Transient receptor potential cation channel subfamily V member 1 (Homo sapiens, UniProt Q8NER1); experiment: Antagonist activity at human TRPV1 expressed in HEK293 cells assessed as inhibition of low pH-induced calcium influx; type: functional, cell-based
Sequence of Transient receptor potential cation channel subfamily V member 1 (Homo sapiens, UniProt Q8NER1) (Q8NER1 whole entry): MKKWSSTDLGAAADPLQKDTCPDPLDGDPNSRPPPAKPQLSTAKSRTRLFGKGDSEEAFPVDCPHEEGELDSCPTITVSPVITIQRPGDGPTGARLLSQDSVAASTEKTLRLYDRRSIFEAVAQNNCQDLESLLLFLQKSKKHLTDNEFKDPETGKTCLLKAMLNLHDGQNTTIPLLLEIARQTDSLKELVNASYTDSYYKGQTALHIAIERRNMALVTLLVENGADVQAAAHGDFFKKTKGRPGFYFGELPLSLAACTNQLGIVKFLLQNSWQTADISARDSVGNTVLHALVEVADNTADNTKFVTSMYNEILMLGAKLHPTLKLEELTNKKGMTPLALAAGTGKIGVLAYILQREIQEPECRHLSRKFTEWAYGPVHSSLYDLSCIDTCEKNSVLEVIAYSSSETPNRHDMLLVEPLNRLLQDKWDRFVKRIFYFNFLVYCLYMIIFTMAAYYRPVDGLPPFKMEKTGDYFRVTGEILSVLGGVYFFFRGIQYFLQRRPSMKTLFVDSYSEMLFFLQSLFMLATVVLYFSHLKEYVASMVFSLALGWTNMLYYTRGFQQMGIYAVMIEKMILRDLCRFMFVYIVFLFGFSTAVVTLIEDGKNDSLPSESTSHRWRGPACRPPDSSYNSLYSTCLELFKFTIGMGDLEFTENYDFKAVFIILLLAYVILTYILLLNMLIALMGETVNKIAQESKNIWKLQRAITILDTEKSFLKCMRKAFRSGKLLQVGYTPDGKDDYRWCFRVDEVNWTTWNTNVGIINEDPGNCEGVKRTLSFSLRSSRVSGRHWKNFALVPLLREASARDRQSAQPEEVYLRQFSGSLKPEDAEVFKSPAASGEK

[11] = biological target: T1, Transient receptor potential cation channel subfamily V member 1 (Rattus norvegicus, UniProt O35433); experiment: Antagonist activity at rat TRPV1 expressed in HEK293 cells assessed as inhibition of low pH-induced calcium influx; type: functional, cell-based
T1 sequence (O35433 whole entry): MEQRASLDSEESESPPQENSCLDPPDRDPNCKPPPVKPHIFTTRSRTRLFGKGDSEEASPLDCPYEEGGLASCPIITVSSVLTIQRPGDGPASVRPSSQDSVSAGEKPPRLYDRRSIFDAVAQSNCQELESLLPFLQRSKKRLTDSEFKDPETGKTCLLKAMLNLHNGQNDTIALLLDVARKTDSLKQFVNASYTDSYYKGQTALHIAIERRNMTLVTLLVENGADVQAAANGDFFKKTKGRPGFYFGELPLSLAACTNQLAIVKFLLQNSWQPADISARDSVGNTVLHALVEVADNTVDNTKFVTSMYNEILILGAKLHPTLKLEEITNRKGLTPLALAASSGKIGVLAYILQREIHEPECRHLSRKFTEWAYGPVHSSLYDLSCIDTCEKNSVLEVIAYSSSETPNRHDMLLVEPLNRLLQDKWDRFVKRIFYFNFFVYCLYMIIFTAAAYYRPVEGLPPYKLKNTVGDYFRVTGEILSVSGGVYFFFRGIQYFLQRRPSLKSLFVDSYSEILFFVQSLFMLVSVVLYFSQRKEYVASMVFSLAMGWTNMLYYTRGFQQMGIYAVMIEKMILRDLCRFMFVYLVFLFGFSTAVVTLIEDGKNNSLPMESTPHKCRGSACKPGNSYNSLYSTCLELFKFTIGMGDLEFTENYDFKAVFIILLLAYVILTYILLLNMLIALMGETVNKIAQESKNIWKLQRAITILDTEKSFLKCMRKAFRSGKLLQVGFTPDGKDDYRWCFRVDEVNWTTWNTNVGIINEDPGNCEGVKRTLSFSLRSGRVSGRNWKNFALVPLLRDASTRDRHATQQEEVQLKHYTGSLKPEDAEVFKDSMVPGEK

[12] = biological target: T1, Transient receptor potential cation channel subfamily V member 1; experiment: Displacement of [3H]RTX from rat TRPV1 expressed in HEK293 cells; type: cell-based
Rattus norvegicus [13] = experiment: Analgesic activity in rat model assessed as inhibition of carrageenan-induced thermal hyperalgesia at 30 mg/kg, po administered 1 hr prior carrageenan challenge relative to control; type: functional, organism-based; parameters: dose 30 mg/kg
Rattus norvegicus [14] = experiment: Analgesic activity in rat model assessed as inhibition of carrageenan-induced thermal hyperalgesia at 3 mg/kg, po administered 1 hr prior carrageenan challenge relative to control; type: functional, organism-based; parameters: dose 3 mg/kg
Rattus norvegicus [15] = experiment: Analgesic activity in rat model assessed as inhibition of carrageenan-induced thermal hyperalgesia at 1 mg/kg, po administered 1 hr prior carrageenan challenge relative to control; type: functional, organism-based; parameters: dose 1 mg/kg
Rattus norvegicus [16] = experiment: Analgesic activity in rat model assessed as inhibition of carrageenan-induced thermal hyperalgesia at 0.3 mg/kg, po administered 1 hr prior carrageenan challenge relative to control; type: functional, organism-based; parameters: dose 0.3 mg/kg
Rattus norvegicus [17] = experiment: Analgesic activity in rat model assessed as maximum degree of inhibition of carrageenan-induced thermal hyperalgesia at 3 mg/kg, po administered 1 hr prior carrageenan challenge measured after 4 hrs; type: functional; parameters: scale not given: the % may be the effect or the level left
Rattus norvegicus [18] = experiment: Analgesic activity against carrageenan-induced thermal hyperalgesia in po dosed rat model assessed as paw withdrawal latency; type: functional, organism-based
Rattus norvegicus [19] = experiment: Analgesic activity in po dosed rat model assessed as inhibition of carrageenan-induced thermal hyperalgesia administered 1 hr prior carrageenan challenge; type: functional
[20] = Plasma concentration in carrageenan-induced thermal hyperalgesia rat model at 0.3 mg/kg, po after 5 hrs post-carrageenan injection; type: ADME, organism-based; parameters: dose 0.3 mg/kg, route oral
[21] = Plasma concentration in carrageenan-induced thermal hyperalgesia rat model at 1 mg/kg, po after 5 hrs post-carrageenan injection; type: ADME, organism-based; parameters: dose 1 mg/kg, route oral
[22] = Plasma concentration in carrageenan-induced thermal hyperalgesia rat model at 3 mg/kg, po after 5 hrs post-carrageenan injection; type: ADME, organism-based; parameters: dose 3 mg/kg, route oral
[23] = Plasma concentration in carrageenan-induced thermal hyperalgesia rat model at 30 mg/kg, po after 5 hrs post-carrageenan injection; type: ADME, organism-based; parameters: dose 30 mg/kg, route oral
[24] = biological target: Transient receptor potential cation channel subfamily V member 1 (Rattus norvegicus) (UniProt O35433); experiment: Antagonist activity at rat TRPV1 assessed as fold increase in EC50 of capsaicin-induced isometric contraction in rat bladder at 100 nM; type: functional
Sequence of Transient receptor potential cation channel subfamily V member 1 (Rattus norvegicus) (O35433 whole entry): as above

Rattus norvegicus [25] = species: Rattus norvegicus; experiment: Suppression of KCl-induced rat bladder contraction at 100 nM; type: functional, tissue-based; settings: Urinary bladder

FC(F)(F)c1ccc(Nc2ncnc3sc(Nc4c(Cl)cccc4Cl)nc23)cc1
solubility at 72 h [1]: 2 µg/mL (≈ 4.38 µM)
solubility at 72 h [2]: ≤ 1 µg/mL
CL (Rattus norvegicus [3]): 10 mL/min/kg
Vd [4]: 1.6 L/kg
half-life [5]: 2.2 h
Cmax [6]: 1100 nM
Tmax [7]: 2 h
AUC (Rattus norvegicus [8]): 10000 ng·h/mL
F (Rattus norvegicus [9]): 43%
pIC50 [10]: 7.72
pIC50 [11]: 8.22
pKi [12]: 8.40
Activity (Rattus norvegicus [13]): Active
Activity (Rattus norvegicus [14]): Active
Activity (Rattus norvegicus [15]): Active
Activity (Rattus norvegicus [16]): Active
Activity (Rattus norvegicus [17]): 57%
Activity (Rattus norvegicus [18]): inactive
ED50 (Rattus norvegicus [19]): 0.5 mg/kg
concentration at 5 h [20]: 10 nM
concentration at 5 h [21]: 58 nM
concentration at 5 h [22]: 428 nM
concentration at 5 h [23]: 3050 nM
fold change (FC) [24]: 6
Activity (Rattus norvegicus [25]): inactive

From ChEMBL document CHEMBL1139308, “Identification and synthesis of 2,7-diamino-thiazolo[5,4-d]pyrimidine derivatives as TRPV1 antagonists” (Bioorg Med Chem Lett, 2009)
